Experimental data taken from PMC3032881 (Molecular Immunology, 2011).
Peptide text beside a SMILES is read from it.

How the values were obtained:
[1] = biological target: HLA A*0201 on TAP deficient T2 cells (Homo sapiens, UniProt P04439, D140Y/D185E/D98H/E176V/E277Q/G131W/G231S/I119V/I121R/I166T/I218V/L300P/L318F/N151K/N90K/P208A/P217A/Q86G/Q94H/R138H/R169H/T345S); assay: T2-binding assay (cell surface pMHCI stabilization, FACS); format: cell-based
[2] = biological target: T1, HLA A*0201 (soluble recombinant pMHCI) (Homo sapiens, UniProt P04439, D140Y/D185E/D98H/E176V/E277Q/G131W/G231S/I119V/I121R/I166T/I218V/L300P/L318F/N151K/N90K/P208A/P217A/Q86G/Q94H/R138H/R169H/T345S); assay: Real time SPR pMHC stability assay; format: binding; conditions: pMHCI half-life converted from Langmuir dissociation analysis; BIAcore 3000, CM5 chip, ∼500 RUs, 10 μl/min, 15,000 s
T1 construct: made in house

EC50 [1] | Half-life [2] | Structure (SMILES)
23.9 µM |  | CC(C)C[C@H](NC(=O)[C@@H](N)C(C)C)C(=O)N[C@@H](CO)C(=O)N[C@@H](CC(N)=O)C(=O)N[C@@H](CC(=O)O)C(=O)N[C@H](C(=O)N[C@@H](CS)C(=O)N[C@@H](C)C(=O)N[C@@H](CCC(N)=O)C(=O)N[C@H](C(=O)O)C(C)C)C(C)C
50 µM |  | CC[C@H](C)[C@H](NC(=O)[C@@H](N)C(C)C)C(=O)N[C@@H](CO)C(=O)N[C@@H](CC(N)=O)C(=O)N[C@@H](CC(=O)O)C(=O)N[C@H](C(=O)N[C@@H](CS)C(=O)N[C@@H](C)C(=O)N[C@@H](CCC(N)=O)C(=O)N[C@H](C(=O)O)C(C)C)C(C)C (H-VISNDVCAQV-OH)
 | 5.8 h | CC(C)C[C@H](NC(=O)[C@@H](N)Cc1ccc(O)cc1)C(=O)N[C@@H](CCC(=O)O)C(=O)N1CCC[C@H]1C(=O)NCC(=O)N1CCC[C@H]1C(=O)N[C@H](C(=O)N[C@@H](C)C(=O)O)C(C)C (H-YLEPGPVA-OH; N-terminus and C-terminus assumed)

Structure (SMILES) | EC50 [1] | Half-life [2]
CC[C@H](C)[C@H](NC(=O)[C@H](Cc1c[nH]c2ccccc12)NC(=O)[C@H](CCSC)NC(=O)[C@H](CC(C)C)NC(=O)[C@H](CC(C)C)NC(=O)[C@@H](N)CO)C(=O)N[C@H](C(=O)N[C@@H](CCC(N)=O)C(=O)N[C@@H](CC(C)C)C(=O)O)[C@@H](C)O | 43.2 µM | 
